Laboratory results reported in PubChem BioAssay AID977614 (Broad Institute, 2014).
Activity calls are given as the source filed them.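 How the source made its calls: active means parasite count per well reduced by over 3 SD from the mean, with host cell number above 80% of untreated; inactive means the rest.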

Tested on: L. donovani amastigotes in THP-1 macrophages, DAPI imaging, 72 h
Assay: antileishmanial activity in infected macrophages – imaging, THP-1 host macrophages, single concentration (AID 977614);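 further: signal is the parasite per host cell ratio from DAPI stained kinetoplasts and nuclei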

Compound | AC50
CNC[C@H]1OCc2cn(nn2)CCCC(=O)N([C@H](C)CO)C[C@@H]1C | > 10 µM (inactive)
Cc1noc(C)c1NC(=O)N(C)C[C@@H]1OCc2cn(nn2)CCCC(=O)N([C@H](C)CO)C[C@H]1C | > 10 µM (inactive)
CCN(C[C@H]1[C@@H](c2ccccc2)[C@H](CO)N1CC1CC1)C(=O)c1ccccn1 | > 10 µM (inactive)
C[C@H]1CN([C@@H](C)CO)C(=O)CCCn2nncc2CO[C@@H]1CN(C)C(=O)Nc1ccnc(N2CCOCC2)c1 | > 10 µM (inactive)
CC(=O)N1[C@H](CO)[C@H]2c3ccccc3N(C(=O)c3ccc(F)cc3)C[C@H]21 | > 10 µM (inactive)
CCC(=O)N1[C@H](CO)[C@H](c2ccccc2)[C@@H]1CN(CC)C(=O)c1cccc(F)c1 | > 10 µM (inactive)
C[C@H]1CN([C@@H](C)CO)C(=O)CCCn2cc(nn2)CO[C@H]1CN(C)C(=O)Oc1ccc2ccccc2c1 | > 10 µM (inactive)
C[C@H]1CN([C@@H](C)CO)C(=O)CCCn2cc(nn2)CO[C@H]1CN(C)S(=O)(=O)c1ccc(-n2cccn2)cc1 | > 10 µM (inactive)
O=C(c1ccccn1)N1C[C@@H]2[C@H](c3ccccc31)[C@@H](CO)N2C(=O)Nc1ccccc1Cl | > 10 µM (inactive)
CCN(C[C@@H]1[C@H](c2ccccc2)[C@@H](CO)N1C(=O)COC)S(C)(=O)=O | > 10 µM (inactive)
O=C(Nc1ccc(F)cc1)N1C[C@H]2[C@@H](c3ccccc31)[C@@H](CO)N2Cc1ccccc1Cl | > 10 µM (inactive)
Cc1noc(C)c1S(=O)(=O)N(C)C[C@@H]1OCc2cn(nn2)CCCC(=O)N([C@@H](C)CO)C[C@H]1C | > 10 µM (inactive)
COc1ccccc1CN1[C@H](CO)[C@H]2c3ccccc3N(C(=O)C3CCOCC3)C[C@H]21 | > 10 µM (inactive)
C[C@H](CO)N1C[C@H](C)[C@@H](CN(C)C(=O)Nc2ccc(-c3cccs3)cc2)OCc2cnnn2CCCC1=O | > 10 µM (inactive)
COc1ccc(CN2[C@H](CO)[C@@H]3c4ccccc4NC[C@@H]32)cc1 | > 10 µM (inactive)
C[C@H](CO)N1C[C@H](C)[C@H](CN(C)C(=O)Nc2ccccc2C(F)(F)F)OCc2cnnn2CCCC1=O | > 10 µM (inactive)
OC[C@H]1[C@@H]2c3ccccc3NC[C@@H]2N1Cc1cccnc1 | > 10 µM (inactive)
C[C@@H]1CN([C@H](C)CO)C(=O)CCCn2cc(nn2)CO[C@H]1CN(C)Cc1ccccc1 | > 10 µM (inactive)
O=C(CC(F)(F)F)N1C[C@@H]2[C@H](c3ccccc31)[C@@H](CO)N2C(=O)C1CCCCC1 | > 10 µM (inactive)
CCCNC(=O)N1[C@@H](CO)[C@@H]2c3ccccc3N(C(=O)Nc3cccc(Cl)c3)C[C@@H]21 | > 10 µM (inactive)
O=C(c1cccc(F)c1)N1C[C@@H]2[C@H](c3ccccc31)[C@H](CO)N2Cc1cocn1 | > 10 µM (inactive)
CCCN1[C@H](CO)[C@H](c2ccc(C3=CCCC3)cc2)[C@H]1CNC(=O)NC(C)C | > 10 µM (inactive)
CCNC[C@@H]1[C@H](c2ccccc2)[C@@H](CO)N1C(=O)Cc1ccccn1 | > 10 µM (inactive)

Compound | AC50
CC(C)NC(=O)N1[C@@H]2CNc3ccccc3[C@@H]2[C@@H]1CO | > 10 µM (inactive)
O=C(c1ccncc1)N1C[C@@H]2[C@H](c3ccccc31)[C@@H](CO)N2Cc1ccccc1F | > 10 µM (inactive)
CCC(=O)N1[C@H](CO)[C@H]2c3ccccc3N(S(=O)(=O)c3ccc(F)cc3)C[C@H]21 | > 10 µM (inactive)
CCN(C[C@H]1[C@H](c2ccc(-c3cccnc3)cc2)[C@@H](CO)N1C(C)=O)C(C)=O | > 10 µM (inactive)
O=C(CC(F)(F)F)N1C[C@@H]2[C@H](c3ccccc31)[C@H](CO)N2C(=O)c1ccncc1 | > 10 µM (inactive)
C[C@@H]1CN([C@@H](C)CO)C(=O)CCCn2cc(nn2)CO[C@@H]1CN(C)C(=O)Nc1cccc(C(F)(F)F)c1 | > 10 µM (inactive)
C[C@H]1CN([C@@H](C)CO)C(=O)CCCn2nncc2CO[C@@H]1CN(C)Cc1ccc2cccnc2c1 | > 10 µM (inactive)
Cc1noc(C)c1S(=O)(=O)N(C)C[C@H]1OCc2cnnn2CCCC(=O)N([C@H](C)CO)C[C@H]1C | > 10 µM (inactive)
C[C@@H]1CN([C@@H](C)CO)C(=O)CCCn2nncc2CO[C@@H]1CN(C)C(=O)c1ccc(N2CCN(C)CC2)cc1 | > 10 µM (inactive)
O=C(NC[C@@H]1[C@H](c2ccccc2)[C@H](CO)N1C(=O)C1CCC1)NC1CCCC1 | > 10 µM (inactive)
C[C@H](CO)N1C[C@H](C)[C@H](CN(C)Cc2ccc(C(=O)Nc3ccccc3N)cc2)OCc2cnnn2CCCC1=O | > 10 µM (inactive)
C/C=C/c1ccc([C@@H]2[C@@H](CO)N(C(C)=O)[C@H]2CN(CC)C(=O)CN(C)C)cc1 | > 10 µM (inactive)
O=S(=O)(c1ccccc1)N1[C@@H]2CNc3ccccc3[C@@H]2[C@@H]1CO | > 10 µM (inactive)
CN(C[C@H]1[C@H](c2ccccc2)[C@H](CO)N1Cc1ccccn1)S(C)(=O)=O | > 10 µM (inactive)
Cc1cccc(S(=O)(=O)N2C[C@@H]3[C@H](c4ccccc42)[C@@H](CO)N3CC2CCCC2)c1 | > 10 µM (inactive)
COc1ccc(CN(C)C[C@@H]2OCc3cnnn3CCCC(=O)N([C@@H](C)CO)C[C@H]2C)cc1 | > 10 µM (inactive)
CN1C[C@H]2[C@@H](c3ccccc31)[C@@H](CO)N2C(=O)c1cccnc1 | > 10 µM (inactive)
CCCNC(=O)N(C)C[C@H]1[C@H](c2ccccc2)[C@@H](CO)N1C(=O)c1ccccc1 | > 10 µM (inactive)
CCC(=O)N1[C@@H](CO)[C@@H]2c3ccccc3N(C(=O)c3cnccn3)C[C@@H]21 | > 10 µM (inactive)
C[C@@H]1CN([C@@H](C)CO)C(=O)CCCn2nncc2CO[C@@H]1CN(C)Cc1cccc(C(F)(F)F)c1 | > 10 µM (inactive)
CCCNC[C@@H]1[C@@H](c2ccc(C3=CCCCC3)cc2)[C@@H](CO)N1C(=O)C1CCC1 | > 10 µM (inactive)
CC(=O)N1[C@H](CO)[C@@H](c2ccccc2)[C@H]1CN(CC1CCC1)C(=O)CN(C)C | > 10 µM (inactive)
COc1ccccc1C(=O)N1C[C@@H]2[C@H](c3ccccc31)[C@@H](CO)N2C(=O)Cc1ccccc1 | > 10 µM (inactive)

Compound | AC50
C[C@H](CO)N1C[C@H](C)[C@@H](CN(C)Cc2ccccc2C(=O)O)OCc2cnnn2CCCC1=O | > 10 µM (inactive)
C[C@H]1CN([C@@H](C)CO)C(=O)CCCn2nncc2CO[C@@H]1CN(C)C(=O)Nc1ccc(-c2cccs2)cc1 | > 10 µM (inactive)
C[C@H](CO)N1C[C@H](C)[C@H](CN(C)S(=O)(=O)c2ccc(-n3cccn3)cc2)OCc2cn(nn2)CCCC1=O | > 10 µM (inactive)
C[C@@H]1CN([C@@H](C)CO)C(=O)CCCn2nncc2CO[C@@H]1CN(C)Cc1ccc2cccnc2c1 | > 10 µM (inactive)
C[C@H](CO)N1C[C@H](C)[C@@H](CN(C)Cc2cccc3c2OCCCO3)OCc2cnnn2CCCC1=O | > 10 µM (inactive)
CN1[C@H](CO)[C@H]2c3ccccc3NC[C@H]21 | > 10 µM (inactive)
O=S(=O)(c1ccc(F)cc1)N1C[C@@H]2[C@H](c3ccccc31)[C@H](CO)N2Cc1ccccc1Cl | > 10 µM (inactive)
O=C(NC[C@H]1N[C@H](CO)[C@@H]1c1ccccc1)c1ccccc1F | > 10 µM (inactive)
Cc1ccc(S(=O)(=O)N2C[C@H]3[C@@H](c4ccccc42)[C@H](CO)N3Cc2cccnc2)cc1 | > 10 µM (inactive)
O=C(Nc1ccccc1Cl)N1C[C@H]2[C@@H](c3ccccc31)[C@@H](CO)N2C(=O)c1cccnc1 | > 10 µM (inactive)
C[C@H]1CN([C@@H](C)CO)C(=O)CCCn2nncc2CO[C@H]1CN(C)CC1CCCCC1 | > 10 µM (inactive)
COCCN(C[C@@H]1[C@@H](c2ccccc2)[C@@H](CO)N1C(C)=O)C(=O)c1cccnc1 | > 10 µM (inactive)
O=C(CC(F)(F)F)N1C[C@@H]2[C@H](c3ccccc31)[C@@H](CO)N2Cc1cccnc1 | > 10 µM (inactive)
C[C@H]1CN([C@@H](C)CO)C(=O)CCCn2nncc2CO[C@H]1CN(C)C(=O)Nc1ccccc1C(F)(F)F | > 10 µM (inactive)
COCC(=O)N(C[C@H]1[C@H](c2ccccc2)[C@H](CO)N1C(=O)NC(C)C)C(C)C | > 10 µM (inactive)
CC(=O)N1[C@@H](CO)[C@H](c2ccccc2)[C@@H]1CN(CC1CCC1)C(=O)CN(C)C | > 10 µM (inactive)
Cc1noc(C)c1NC(=O)N(C)C[C@@H]1OCc2cn(nn2)CCCC(=O)N([C@@H](C)CO)C[C@H]1C | > 10 µM (inactive)
O=C(c1ccc2c(c1)OCO2)N1C[C@@H]2[C@H](c3ccccc31)[C@@H](CO)N2C(=O)CC1CC1 | > 10 µM (inactive)
C[C@@H]1CN([C@@H](C)CO)C(=O)CCCn2cc(nn2)CO[C@@H]1CN(C)S(=O)(=O)c1cccc(C#N)c1 | > 10 µM (inactive)
O=C(CC(F)(F)F)N1C[C@H]2[C@@H](c3ccccc31)[C@H](CO)N2C(=O)C1CCCCC1 | > 10 µM (inactive)
CC(=O)N1[C@H](CO)[C@@H]2c3ccccc3N(S(=O)(=O)c3ccccc3C)C[C@@H]21 | > 10 µM (inactive)
C[C@H]1CN([C@@H](C)CO)C(=O)CCCn2nncc2CO[C@@H]1CN(C)C(=O)c1cc(-c2ccccc2)on1 | > 10 µM (inactive)
CC(=O)N1[C@H](CO)[C@H](c2ccccc2)[C@H]1CNC(=O)CN1CCOCC1 | > 10 µM (inactive)
